# Source: patent US10913780B2, “Conjugates, their compositions, their uses, and their methods of making” (THE ADMINISTRATORS OF THE TULANE EDUCATIONAL FUND, priority 2016, dated 2021)
# Bridge positions count the residues as written; N and C are the ends. Square brackets hold non-standard residues; d marks the D form. * marks the point of attachment. 4‑mercaptophenylacetyl = O=C(Cc1ccc(S)cc1)*; Nle = CCCC[C@H](N)C(=O)O
# Test system: activated human T-cells (Jurkat)
# Assay: Inhibition of IL-2 release from a culture of activated human T-cells (Jurkat)
# Assay type: cell-based
# Conditions: for inhibition of IL-2 release: Jurkat cells stimulated with lectin and Phorbol, overnight, potency compared with tacrolimus (FK-506); for effect on IL-2 release in the presence of increasing amounts of lanreotide: large excess of the somatostatin type 2 agonist lanreotide
# Method: Cells were harvested, washed twice, and re-suspended in serum-free medium at a cell density of 4×10^6 cells/ml. Fifty μl of cell suspension was then added to each well of 96-well plates followed by 50 μl of tested compounds at different concentration (4×) for 1 hour at 37° C. The cells were stimulated to release IL-2 by adding 50 μl of lectin in PBS (10 μg/ml) and 50 μl of Phorbol in DMSO (100 ng/ml) to each well and continuing overnight incubation. The plates were centrifuged for 10 min at 1500 rpm and supernatants harvested for IL-2 assay using kits purchased from R&D Systems (Minneapolis, Minn.) and following the experimental directions provided.
Compound,inhibition of IL-2 release,inhibition of IL-2 release (listed as 32-thiol analog of tacrolimus),inhibition of IL-2 release (listed as tacrolimus-32-SH),effect on IL-2 release in the presence of increasing amounts of lanreotide,effect on IL-2 release in the presence of increasing amounts of lanreotide (listed as tacrolimus-32-SH-somatostatin)
"C=CC[C@@H]1/C=C(\C)C[C@H](C)C[C@H](OC)[C@H]2O[C@@](O)(C(=O)C(=O)N3CCCC[C@H]3C(=O)O[C@H](/C(C)=C/[C@@H]3CC[C@@H](O)[C@H](OC)C3)[C@H](C)[C@@H](O)CC1=O)[C@H](C)C[C@@H]2OC [Tacrolimus, reference compound]",potent inhibitor,,,,
"C=CC[C@@H]1/C=C(\C)C[C@H](C)C[C@H](OC)[C@H]2O[C@@](O)(C(=O)C(=O)N3CCCC[C@H]3C(=O)O[C@H](/C(C)=C/[C@@H]3CCC(S)[C@H](OC)C3)[C@H](C)[C@@H](O)CC1=O)[C@H](C)C[C@@H]2OC (stereo partly drawn) [tacrolimus-32-thiol, Tacrolimus-32-Thiol]",,virtually equipotent with the parent compound,equivalent potencies,,
Example 10: Tacrolimus-32-thiol linked by a disulfide bond (4-mercaptophenylacetic acid) to the cyclized somatostatin analog peptide of Example 9 ({tacrolimus‑32‑thiol (disulfide)-4‑mercaptophenylacetyl}-[dS]S[dS]S[dS][Nle][dY][dS]CF[dW]KTCT-NH2; disulfide 9-14),virtually equipotent,,,blocked the IL-2 release inhibiting capability,Blockade of biological activity
